What was measured:
[1] = target: T1, hM2 receptor (CHO-K1 cells) (Homo sapiens, UniProt P08172); test: Blockade of agonist-mediated [35S]GTPγS binding; format: biochemical; details: CHO-K1 cells expressing hM2; this or a similar assay; read-out: Ki for blockade of oxotremorine-stimulated [35S]GTPγS binding
T1 construct: expressed in transfected cells; host or cells: CHO-K1 cells
T1 sequence (P08172 1-466): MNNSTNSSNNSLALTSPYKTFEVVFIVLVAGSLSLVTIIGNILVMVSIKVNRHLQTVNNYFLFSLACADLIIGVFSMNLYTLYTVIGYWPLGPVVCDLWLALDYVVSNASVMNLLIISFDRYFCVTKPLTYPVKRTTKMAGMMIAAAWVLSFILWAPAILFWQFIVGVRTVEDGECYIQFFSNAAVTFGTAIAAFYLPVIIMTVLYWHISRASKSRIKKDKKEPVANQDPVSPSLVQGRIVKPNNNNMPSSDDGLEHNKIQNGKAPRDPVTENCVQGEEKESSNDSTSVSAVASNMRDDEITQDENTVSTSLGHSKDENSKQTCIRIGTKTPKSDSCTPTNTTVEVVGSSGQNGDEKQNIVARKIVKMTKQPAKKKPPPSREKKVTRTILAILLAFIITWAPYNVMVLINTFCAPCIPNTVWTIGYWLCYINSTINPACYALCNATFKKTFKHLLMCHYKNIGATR
Method: In a second functional assay, the functional potency of test compounds can be determined by measuring the ability of the compounds to block oxotremorine-stimulated [^35S]GTPγS binding in CHO-K1 cells expressing the hM2 receptor.
At the time of use, frozen membranes were thawed and then diluted in assay buffer with a final target tissue concentration of 5-10 μg protein per well. The membranes were briefly homogenized using a Polytron PT-2100 tissue disrupter and then added to the assay plates. The EC90 value (effective concentration for 90% maximal response) for stimulation of [^35S]GTPγS binding by the agonist oxotremorine was determined in each experiment.
To determine the ability of a test compound to inhibit oxotremorine-stimulated [^35S]GTPγS binding, the following was added to each well of 96 well plates: 25 μL of assay buffer with [^35S]GTPγS (0.4 nM), 25 μL of oxotremorine (EC90) and GDP (3 μM), 25 μL of diluted test compound and 25 μL CHO cell membranes expressing the hM2 receptor. […] Microscint-20 scintillation liquid (50 μL) was added to each well, and each plate was sealed and radioactivity counted on a topcounter (PerkinElmer). Data were analyzed by nonlinear regression analysis with the GraphPad Prism Software package (GraphPad Software, Inc., San Diego, Calif.) using the non-linear regression, one-site competition equation. […]

[2] = target: T2, M3 muscarinic receptor subtype (hM3) (Homo sapiens, UniProt P20309); test: Radioligand binding assay ([3H]-NMS displacement, CHO cell membranes); details: [3H]-NMS 1 nM, this or a similar assay
T2 construct: expressed in transfected cells
Method: CHO cell lines stably expressing cloned human hM1, hM2, hM3 and hM4 muscarinic receptor subtypes, respectively, were grown to near confluency in medium consisting of HAM's F-12 supplemented with 10% FBS and 250 μg/mL Geneticin. The cells were grown in a 5% CO2, 37° C. incubator and lifted with 2 mM EDTA in dPBS. Cells were collected by 5 minute centrifugation at 650×g, and cell pellets were either stored frozen at −80° C. or membranes were prepared immediately. For membrane preparation, cell pellets were resuspended in lysis buffer and homogenized with a Polytron PT-2100 tissue disrupter (Kinematica AG; 20 seconds×2 bursts). Crude membranes were centrifuged at 40,000×g for 15 minutes at 4° C. […] The protein concentration of the membrane suspension was determined by the method described in Lowry, O. et al., Journal of Biochemistry 193:265 (1951). […]
Radioligand binding assays were performed in 96-well microtiter plates in a total assay volume of 100 μL. […] Filter plates were rinsed three times with wash buffer (10 mM HEPES) to remove unbound radioactivity. […] The plates were then counted in a PerkinElmer Topcount liquid scintillation counter (PerkinElmer Inc., Wellesley, Mass.). Binding data were analyzed by nonlinear regression analysis with the GraphPad Prism Software package (GraphPad Software, Inc., San Diego, Calif.) using the one-site competition model. […]

T2 sequence (P20309 whole entry): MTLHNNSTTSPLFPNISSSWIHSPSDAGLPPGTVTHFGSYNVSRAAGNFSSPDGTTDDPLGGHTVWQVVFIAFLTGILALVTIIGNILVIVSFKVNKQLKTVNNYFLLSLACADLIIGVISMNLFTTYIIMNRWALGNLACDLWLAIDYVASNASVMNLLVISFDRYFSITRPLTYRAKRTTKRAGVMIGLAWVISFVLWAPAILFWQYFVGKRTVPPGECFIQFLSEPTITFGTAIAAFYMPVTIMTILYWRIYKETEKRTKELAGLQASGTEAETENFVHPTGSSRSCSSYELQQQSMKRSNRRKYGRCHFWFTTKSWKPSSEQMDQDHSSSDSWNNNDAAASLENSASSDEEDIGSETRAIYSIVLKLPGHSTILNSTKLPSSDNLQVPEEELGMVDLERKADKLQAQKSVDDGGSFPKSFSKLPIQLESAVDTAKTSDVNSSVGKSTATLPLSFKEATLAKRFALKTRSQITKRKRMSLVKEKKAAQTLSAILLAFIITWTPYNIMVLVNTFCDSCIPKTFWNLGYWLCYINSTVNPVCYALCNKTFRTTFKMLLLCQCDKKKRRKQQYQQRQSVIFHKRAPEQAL

`CN(CCN1CCC(OC(=O)Nc2ccccc2-c2ccccc2)CC1)C(=O)c1cccc(C(=O)NCCNCc2ccc(O)cc2)c1` [compound of formula I, biphenyl-2-ylcarbamic acid 1-[2-({3-[2-(4-hydroxybenzylamino)ethylcarbamoyl]benzoyl}methylamino)ethyl]piperidin-4-yl ester] gave a Ki [1] of under 10 nM and a Ki [2] of under 5 nM.

— patent US7973055B2, “Crystalline forms of a biphenyl compound” (Theravance, Inc., priority 2006, dated 2011)
